Molecular target: human recombinant PDE4B1 enzyme (Homo sapiens (Human), UniProt Q07343)
Assay: Inhibition of PDE4B1 activity by cAMP HTRF assay
Assay type: biochemical
Conditions: human recombinant PDE4B1, cAMP 40 nM, pH 7.4
Procedure: Determination of the inhibition of the compounds on PDE4B1 activity by using cAMP HTRF® assay
The inhibitory effect of the compounds on human PDE4B1 enzyme activity was determined by quantifying the 5′-adenosine monophosphate (5′-AMP) formed from 3′,5′-cyclic adenosine monophosphate (cAMP).
The test compound or water (control) and human recombinant PDE4B1 enzyme (4.8 U) were mixed in a buffer solution (pH 7.4) consisting of 1× Hanks' balanced salt solution (HBSS), 5 mM HEPES, 3 mM MgCl2, and 0.1% BSA and incubated for 10 min. A cAMP enzyme substrate (final concentration 40 nM) was added, and the mixture was incubated at room temperature for 60 min. Then a fluorescent acceptor (Dye2 labeled with cAMP), a fluorescent donor (anti-cAMP antibody labeled with europium cryptate) and a non-specific phosphodiesterase inhibitor IBMX (3-isobutyl-1-methyl xanthine; final concentration 1 mM) were added. After 60 min, the fluorescence transfer related to the amount of remaining cAMP was measured on a microplate reader (Rubystar, BMG) at λex=337 nm, λem=620 nm and λem=665 nm. The enzyme activity is calculated from the ratio of the signals measured at 665 nm and 620 nm. The results are expressed as percent inhibition of the enzyme activity of the control (without PDE4 inhibitor). The enzyme was omitted for measurement of the basic control. The IC50 value (IC50=the concentration that caused the half-maximum inhibition of the specific activity of the control) is derived from dose-response measurements with eight different concentrations (n=2; repeated 2 times)

Sequence of human recombinant PDE4B1 enzyme (Q07343 whole entry): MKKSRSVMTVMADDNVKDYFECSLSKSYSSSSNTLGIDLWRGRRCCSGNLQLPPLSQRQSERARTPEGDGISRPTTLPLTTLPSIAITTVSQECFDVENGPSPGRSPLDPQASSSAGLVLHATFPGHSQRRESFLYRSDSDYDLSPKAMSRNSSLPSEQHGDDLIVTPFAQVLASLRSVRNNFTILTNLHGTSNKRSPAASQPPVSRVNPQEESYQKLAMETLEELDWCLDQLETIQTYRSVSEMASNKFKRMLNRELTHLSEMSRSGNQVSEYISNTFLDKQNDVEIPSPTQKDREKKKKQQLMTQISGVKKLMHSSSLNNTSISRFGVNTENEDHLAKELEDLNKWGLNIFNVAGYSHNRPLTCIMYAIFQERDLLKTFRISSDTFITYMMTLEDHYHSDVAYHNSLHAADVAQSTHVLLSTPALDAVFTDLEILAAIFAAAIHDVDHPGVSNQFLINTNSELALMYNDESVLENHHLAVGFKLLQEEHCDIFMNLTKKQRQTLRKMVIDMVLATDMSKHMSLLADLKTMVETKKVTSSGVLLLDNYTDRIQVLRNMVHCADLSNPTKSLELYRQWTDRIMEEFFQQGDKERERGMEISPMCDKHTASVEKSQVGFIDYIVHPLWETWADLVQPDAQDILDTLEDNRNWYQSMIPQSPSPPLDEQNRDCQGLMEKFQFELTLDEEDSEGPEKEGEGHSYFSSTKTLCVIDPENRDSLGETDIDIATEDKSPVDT

| Compound | IC50 [nM] |
| --- | --- |
| COc1ccc(/C=C/n2c(C)cc(=O)cc2C)cc1O[C@H]1CC[S+]([O-])C1 (single isomer, unassigned) [Example 83-1] | 550 |
| COc1ccc(/C=C/n2c(C)cc(=O)cc2C)cc1O[C@H]1CC[S+]([O-])C1 (single isomer, unassigned) [Example 83-2] | 106 |
| COc1ccc(/C=C/n2c(C)cc(=O)cc2C)cc1O[C@@H]1CC[S+]([O-])C1 (single isomer, unassigned) [Example 86-1] | 310 |
| COc1ccc(/C=C/n2c(C)cc(=O)cc2C)cc1O[C@@H]1CC[S+]([O-])C1 (single isomer, unassigned) [Example 86-2] | 81 |
| Cc1cc(=O)cc(C)n1/C=C/c1ccc(OC(F)F)c(O[C@H]2CC[S+]([O-])C2)c1 (single isomer, unassigned) [Example 98-1] | 97 |
| Cc1cc(=O)cc(C)n1/C=C/c1ccc(OC(F)F)c(O[C@@H]2CC[S+]([O-])C2)c1 (single isomer, unassigned) [Example 101-1] | 99 |
| Cc1cc(=O)cc(C)n1/C=C/c1ccc(OC(F)F)c(O[C@@H]2CC[S+]([O-])C2)c1 (single isomer, unassigned) [Example 101-2] | 26 |
| COc1ccc(C(O)Cn2c(C)cc(=O)cc2C)cc1OCC1CC1 (stereo not shown) [Example 1, 1-(2-(3-cyclopropylmethoxy-4-methoxyphenyl)-2-hydroxyethyl)-2,6, dimethylpyridin-4(1H)-one] | 760 |
| COc1ccc(C(Cn2c(C)cc(=O)cc2C)OC(=O)C2CC2)cc1OCC1CC1 (stereo not shown) [Example 4, (1-(3-cyclopropylmethoxy-4methoxyphenyl)-2-(2,6-dimethyl-4-carbonylpyridin-1(4H)-yl)ethyl) cyclopropylcarboxylate] | 36 |
| CC#CCOC(Cn1c(C)cc(=O)cc1C)c1ccc(OC)c(OCC2CC2)c1 (stereo not shown) [Example 9, 1-(2-(but-2-yn-1-yloxy)-2-(3-cyclopropylmethoxy-4-methoxyphenyl)ethyl)-2,26-dimethylpyridin-4-(1H)-one] | 25 |
| COc1ccc(C(=O)Cn2c(C)cc(=O)cc2C)cc1O [Example 10, 1-(2-(3-hydroxy-4-methoxyphenyl)-2-oxoethyl)-2,6-dimethylpyridin-4(1H)-one] | 3300 |
| COc1ccc(C(=O)Cn2c(C)cc(=O)cc2C)cc1OC [Example 11, 1-(2-(3,4-dimethoxyphenyl)-2-oxoethyl)-2,6-dimethylpyridin-4(1H)-one] | 44 |
| CCCCOc1cc(C(=O)Cn2c(C)cc(=O)cc2C)ccc1OC [Example 15, 1-(2(3-n-butoxy-4-methoxyphenyl)-2-oxoethyl)-2,6-dimethylpyridin-4(1H)-one] | 33 |
| COc1ccc(C(=O)Cn2c(C)cc(=O)cc2C)cc1OCC(C)C [Example 16, 1-(2-(3-iso-butoxy-4-methoxyphenyl)-2-oxoethyl)-2,6-dimethylpyridin-4(1H)-one] | 10.3 |
| COc1ccc(C(=O)Cn2c(C)cc(=O)cc2C)cc1OC1CCCCC1 [Example 24, 1-(2-(3-cyclohexyloxy-4-methoxyphenyl)-2-oxoethyl)-2,6-dimethylpyridin-4(1H)-one] | 23 |
| C=CCOc1cc(C(=O)Cn2c(C)cc(=O)cc2C)ccc1OC [Example 26, 1-(2-(3-allyloxy-4-methoxyphenyl)-2-oxoethyl)-2,6-dimethylpyridin-4(1H)-one] | 39 |
| COc1ccc(C(=O)Cn2c(C)cc(=O)cc2C)cc1OCC=C(C)C [Example 27, 1-(2-(3-((3-methylbut-2-en-1-yl)oxy)-4-methoxyphenyl)-2-oxoethyl)-2,6-dimethylpyridin-4(1H)-one] | 65 |
| C#CCOc1cc(C(=O)Cn2c(C)cc(=O)cc2C)ccc1OC [Example 28, 1-(2-(3-propargyloxy-4-methoxyphenyl)-2-oxoethyl)-2,6-dimethylpyridin-4(1H)-one] | 92 |
| CC#CCOc1cc(C(=O)Cn2c(C)cc(=O)cc2C)ccc1OC [Example 29, 1-(2-(3-(but-2-yn-1-yloxy)-4-methoxyphenyl)-2-oxoethyl)-2,6-dimethylpyridin-4(1H)-one] | 93 |
| COc1ccc(C(=O)Cn2c(C)cc(=O)cc2C)cc1OC1COC1 [Example 30, 1-(2-(3-(oxacyclobutan-3-yl-oxy)-4-methoxyphenyl)-2-oxoethyl)-2,6-dimethylpyridin-4(1H)-one] | 116 |
| COc1ccc(C(=O)Cn2c(C)cc(=O)cc2C)cc1OC1CCCO1 (stereo not shown) [Example 31, 1-(2-(3-(tetrahydrofuran-2-yl)oxy-4-methoxyphenyl)-2-oxoethyl)-2,6-dimethylpyridin-4(1H)-one] | 26 |
| COc1ccc(C(=O)Cn2c(C)cc(=O)cc2C)cc1OC[S+](C)[O-] (stereo not shown) [Example 33, 1-(2-(3-methylsulfoxidemethoxy-4-methoxyphenyl)-2-oxoethyl)-2,6-dimethylpyridin-4(1H)-one] | 830 |
| COc1ccc(C(=O)Cn2c(C)cc(=O)cc2C)cc1OCS(C)(=O)=O [Example 34, 1-(2-(3-methylsulfonemethoxy-4-methoxyphenyl)-2-oxoethyl)-2,6-dimethylpyridin-4(1H)-one] | 420 |
| COc1ccc(C(=O)Cn2c(C)cc(=O)cc2C)cc1OCCSC [Example 35, 1-(2-(3-methylthioethoxy-4-methoxyphenyl)-2-oxoethyl)-2,6-dimethylpyridin-4(1H)-one] | 32 |

Further lines, results first:

| IC50 [nM] | Compound |
| --- | --- |
| 12.5 | Cc1cc(=O)cc(C)n1/C=C/c1ccc(OC(F)F)c(O[C@H]2CC[S+]([O-])C2)c1 (single isomer, unassigned) [Example 98-2] |
| 2.7 | COc1ccc(C(C#N)=Cn2c(C)cc(=O)cc2C)cc1OCC1CC1 (stereo in doubt) [Example 106, (E)-1-(2-(3-cyclopropylmethoxy-4-methoxyphenyl)-2-cyanoethenyl)-2,6-dimethylpyridin-4(1H)-one] |
| 19 | C/C=C/C(=O)OC(Cn1c(C)cc(=O)cc1C)c1ccc(OC)c(OCC2CC2)c1 (stereo not shown) [Example 6, (1-(3-cyclopropylmethoxy-4methoxyphenyl)-2-(2,6-dimethyl-4-carbonylpyridin-1(4H)-yl)ethyl) crotonate] |
| 5.7 | COc1ccc(C(Cn2c(C)cc(=O)cc2C)OC(=O)C=C(C)C)cc1OCC1CC1 (stereo not shown) [Example 7, (1-(3-cyclopropylmethoxy-4methoxyphenyl)-2-(2,6-dimethyl-4-carbonylpyridin-1(4H)-yl)ethyl) 3-methylcrotonate] |
| 23 | CC#CC(=O)OC(Cn1c(C)cc(=O)cc1C)c1ccc(OC)c(OCC2CC2)c1 (stereo not shown) [Example 8, (1-(3-cyclopropylmethoxy-4methoxyphenyl)-2-(2,6-dimethyl-4-carbonylpyridin-1(4H)-yl)ethyl) but-2-ynoate] |
| 4.9 | CCCOc1cc(C(=O)Cn2c(C)cc(=O)cc2C)ccc1OC [Example 13, 1-(2-(3-propoxy-4-methoxyphenyl)-2-oxoethyl)-2,6-dimethylpyridin-4(1H)-one] |
| 21 | COc1ccc(C(=O)Cn2c(C)cc(=O)cc2C)cc1OC(C)C [Example 14, 1-(2-(3-isopropoxy-4-methoxyphenyl)-2-oxoethyl)-2,6-dimethylpyridin-4(1H)-one] |
| 16 | CCCCCOc1cc(C(=O)Cn2c(C)cc(=O)cc2C)ccc1OC [Example 17, 1-(2-(3-n-pentyloxy-4-methoxyphenyl)-2-oxoethyl)-2,6-dimethylpyridin-4(1H)-one] |
| 4.5 | CCCCCCOc1cc(C(=O)Cn2c(C)cc(=O)cc2C)ccc1OC [Example 18, 1-(2-(3-n-hexyloxy-4-methoxyphenyl)-2-oxoethyl)-2,6-dimethylpyridin-4(1H)-one] |
| 4.6 | COc1ccc(C(=O)Cn2c(C)cc(=O)cc2C)cc1OC1CC1 [Example 19, 1-(2-(3-cyclopropyloxy-4-methoxyphenyl)-2-oxoethyl)-2,6-dimethylpyridin-4(1H)-one] |
| 13 | COc1ccc(C(=O)Cn2c(C)cc(=O)cc2C)cc1OCC1CC1 [Example 20, 1-(2-(3-cyclopropylmethoxy-4-methoxyphenyl)-2-oxo)ethyl-2,6-dimethylpyridin-4(1H)-one] |
| 4.6 | COc1ccc(C(=O)Cn2c(C)cc(=O)cc2C)cc1OC1CCC1 [Example 21, 1-(2-(3-cyclobutyloxy-4-methoxyphenyl)-2-oxoethyl)-2,6-dimethylpyridin-4(1H)-one] |
| 20 | COc1ccc(C(=O)Cn2c(C)cc(=O)cc2C)cc1OCC1CCC1 [Example 22, 1-(2-(3-cyclobutylmethoxy-4-methoxyphenyl)-2-oxo)ethyl-2,6-dimethylpyridin-4(1H)-one] |
| 5 | COc1ccc(C(=O)Cn2c(C)cc(=O)cc2C)cc1OC1CCCC1 [Example 23, 1-(2-(3-cyclopentyloxy-4-methoxyphenyl)-2-oxoethyl)-2,6-dimethylpyridin-4(1H)-one] |
| 11.5 | COc1ccc(C(=O)Cn2c(C)cc(=O)cc2C)cc1OC1CC=CC1 [Example 25, 1-(2-(3-(cyclopent-3-en-1-yloxy)-4-methoxyphenyl)-2-oxoethyl)-2,6-dimethylpyridin-4(1H)-one] |
| 13.9 | COc1ccc(C(=O)Cn2c(C)cc(=O)cc2C)cc1OCSC [Example 32, 1-(2-(3-methylthiomethoxy-4-methoxyphenyl)-2-oxoethyl)-2,6-dimethylpyridin-4(1H)-one] |

— patent publication US11440886B2, “Anti-inflammatory compound, and preparation and use thereof” (E-Nitiate Biopharmaceuticals (Hangzhou) Co., Ltd., priority 2018, dated 2022)
